{"source": "patent US20220313658A1", "about": "“YAP Inhibition for Wound Healing” (The Board of Trustees of the Leland Stanford Junior …, priority 2019, published 2022)", "key": {"dorsal excisional wounds [1]": {"system": "dorsal excisional wounds", "assay": "Quantitative analysis of collagen/ECM ultrastructure (Picrosirius Red, machine learning) of healed wounds", "assay_type": "in vivo, mouse", "description": "For analysis of Picrosirius Red-stained histologic sections, scars and surrounding normal skin from three biologic replicates were randomly imaged at 5 to 10 separate locations each, for a minimum of 20 images per experimental condition. Next, color deconvolution of Picrosirius Red images was performed in ImageJ using the algorithm previously described by Ruifrok et al., (A. C. Ruifrok, D. A. Johnston, Quantification of histochemical staining by color deconvolution. Anal Quant Cytol Histol 23, 291-299 (2001)) wherein each pure stain is characterized by absorbances within three RGB channels (Color 1=[1 0 0], Color 2=[0 1 0], Color 3=[1 1 1]). Ortho-normal transformation of the histology images produced individual images corresponding to each color's individual contribution to the image. Applied to birefringent Picrosirius Red images (green to red color under polarized light depending on packing of fiber bundles), this technique produced deconvoluted red and green images corresponding to mature and immature connective tissue fibers, which were then analyzed independently. Analysis was thus performed purely using extracellular matrix fibers, with no cellular elements included. Noise reduction of deconvoluted fibers was achieved using an adaptive Wiener filter in Matlab 2019a (wiener2 function), which tailors itself to the local image variance within a pre-specified neighborhood (3-by-3 pixels in the current application). The filter preferentially smooths regions with low variance, thereby preserving sharp edges of fibers. Smooth images were then binarized using the im2bw command and processed through erosion and dilation filters with both linear and diamond-shaped structuring elements to select for fiber-shaped objects. Finally, the fiber network was “skeletonized” using the bwmorph command and various parameters of the digitized map (fiber length, width, persistence, alignment, etc.) were measured using the regionprops command. Dimensionality reduction of quantified fiber network properties by […] stochastic neighbor embedding (t-SNE) was achieved using the default tsne (distance metric specified as Euclidian distance) command in Matlab. A Matlab script containing the fiber quantification pipeline is available at the following Github repository: https://github.com/shamikmascharak/Mascharak-et-al-ENF\nTo overcome these challenges, a novel machine learning algorithm recently reported to quantitatively assess connective tissue and fibrosis based on standard histology stains was employed. (S. Mascharak et al., Automated machine learning analysis of connective tissue networks in acute and chronic skin fibroses (manuscript submitted). (2019)) Briefly, images of Picrosirius Red-stained tissue were color-deconvoluted to isolate ECM fibers from cell bodies and nuclei. Fiber components were image-processed to reduce noise, then binarized to produce a digital map of thousands of fibers and branchpoints. A panel of individual (e.g., length, width) and group (e.g., packing, alignment) fiber properties was then measured to quantitatively profile ECM features.\nVerteporfin- and control-treated specimens were stained with Picrosirius Red and subjected to this analysis."}, "dorsal excisional wounds [2]": {"system": "dorsal excisional wounds", "assay": "Dorsal excisional wounding, wound base injected with Verteporfin: gross, histology, immunofluorescence", "assay_type": "in vivo, mouse", "description": "P60 En-1^Cre;R26^mTmG, En-1^Cre;Ai6, and En-1^Cre-ERT;Ai6 mice were used for cutaneous wound healing experiments in accordance with well-established protocols. Briefly, mice were anesthetized (2% isofiuorane), their dorsal hair was removed with depilatory cream, and the dorsal skin was prepped with alcohol wipes. Next, two 6 mm full-thickness circular wounds were placed through the panniculus carnosus on the dorsum of each animal at the same level, roughly 6 mm below the ears and 4 mm lateral to the midline. The wounds were then stented open by 12 mm diameter silicone rings secured around the wound perimeter with glue and 8 simple interrupted Ethilon 6-0 sutures (Ethicon). For mice receiving mechanotransduction inhibitor, 30 μL of Verteporfin (1 mg/mL) was injected locally into the wound base; PBS was injected into wounds for vehicle controls. Post-operative analgesia was accomplished with buprenorphine 0.05 mg/kg every four hours for three doses, and then as indicated. Dressings were changed every other day under anesthesia. All wounds were fully re-epithelialized by post-operative day (POD) 14, at which time the wound and surrounding skin (used as unwounded control) were harvested and processed for histology. Induction of En-1^Cre-ERT;Ai6 mice was achieved by 5 consecutive days of intraperitoneal tamoxifen injections (90% corn oil/ethanol v/v; 200 mg/kg body weight) prior to wounding. In all experiments, a minimum of 3 mice with 2 wounds each was used for each treatment group.\nTissues were fixed in 2% paraformaldehyde for 16 h at 4° C. Samples were prepared for embedding by soaking in 30% sucrose in PBS for 1 week at 4° C. Samples were then removed from the sucrose solution, and tissue blocks were prepared by embedding in Tissue Tek U.C.T. (Sakura Finetek) under dry ice to achieve rapid freezing. Frozen blocks were mounted on a Thermo Scientific CryoStar NX70 cryostat, and 10 μm-thick sections were transferred to SuperfrostfPlus adhesive slides (Fisher). For hematoxylin and eosin staining, standard protocols were used with no modifications. For immunofluorescent staining, slides were blocked for 1 hr with Power Block (Biogenex) prior to addition of the following primary antibodies: Abeam ab34710 (anti-collagen type I), Abeam ab28340 (anti-CD26), Invitrogen MA5-15915 (anti-Dlk1), Abeam ab51317 (anti-Scat), Abeam ab5694 (anti-α-SMA), Santa Cruz Biotechnology sc-101199 (anti-YAP), Abeam ab7800 (anti-CK14), and Abeam ab52625 (anti-CK19). Slides were then incubated for 1 h with Alexa Fluor 568 or Alexa Fluor 647-conjugated anti-rabbit, anti-rat, or anti-mouse antibodies (Invitrogen). Finally, slides were mounted in Fluoromount-G mounting solution with DAPI (Thermo Fisher). Brightfield images were acquired with a Leica DMI4000B microscope, while fluorescent images were acquired with a Leica DM6000 SP5 upright confocal microscope.\nGiven that En-1 activation was associated with adoption of a pro-fibrotic phenotype, and that YAP inhibition prevented En-1 activation in vitro, whether YAP inhibition could also block En-1 activation in vivo to reduce scarring in a mouse wounding model was assessed. Adult En-1^Cre;R26^mTmG mice were wounded, and the POD 0 wounds were treated by injecting the wound base with either PBS (control) or Verteporfin (1 mg/mL). […] Wounds were harvested for gross and histological examination at POD 14, 30, or 90. As expected, control wounds healed in a typical scarring fashion (FIG. 4, A middle row). Even after 90 days, the wound site remained bare, forming a distinct region of pale scar tissue in which no hair regrowth occurred (FIG. 4, A middle row, right image). […] This was a striking result, as a hallmark of adult mammalian (scarring) wound healing is a complete lack of regeneration of secondary appendages (e.g., hair follicles, sweat glands), as exemplified by the bare area that remained following control wound healing. […]"}, "[3]": {"conditions": "four treatments (POD 0, 4, 8 and 12)"}, "[4]": {"conditions": "30 days, relative to control wounds"}}, "data": [{"substance": "verteporfin", "values": [{"measurement": "Clustering of connective tissue parameters, Verteporfin-treated wounds vs unwounded skin", "setting": "dorsal excisional wounds [1]; 30 days", "result": "increasing overlap"}, {"measurement": "Clustering of connective tissue parameters, Verteporfin-treated wounds vs unwounded skin", "setting": "dorsal excisional wounds [1]; 90 days", "result": "complete overlap"}, {"measurement": "ECM fiber metrics (fiber length, width, branching, etc.)", "setting": "dorsal excisional wounds [1]; POD 14", "result": "comparable to unwounded skin"}, {"measurement": "Clustering of connective tissue parameters, Verteporfin-treated wounds vs unwounded skin", "setting": "dorsal excisional wounds [1]; after 14 days", "result": "largely overlapping clusters"}, {"measurement": "ECM features", "setting": "dorsal excisional wounds [1]; [3]", "result": "diverged from those of unwounded skin"}, {"measurement": "Fibronectin staining", "setting": "dorsal excisional wounds [2]; 14 days, vs control wounds", "result": "comparatively stronger staining for fibronectin"}, {"measurement": "col-I staining", "setting": "dorsal excisional wounds [2]; 14 days, vs control wounds", "result": "substantially reduced col-I staining"}, {"measurement": "Distribution of Dlk1+ cells", "setting": "dorsal excisional wounds [2]; 30 days", "result": "present throughout the dermis"}, {"measurement": "CD26 staining", "setting": "dorsal excisional wounds [2]; [4]", "result": "decreased staining for CD26"}, {"measurement": "Number of EPFs in wounds", "setting": "dorsal excisional wounds [2]; [4]", "result": "significantly fewer EPFs"}, {"measurement": "Chains of YAP+ cells", "setting": "dorsal excisional wounds [2]; 30 days, vs control wounds", "result": "markedly shorter"}, {"measurement": "IF staining of appendages for cytokeratins 14 and 19 (hair follicle and sweat gland markers)", "setting": "dorsal excisional wounds [2]; POD 90", "result": "positive IF staining"}, {"measurement": "Oil Red O lipid staining (sebaceous glands)", "setting": "dorsal excisional wounds [2]; POD 90", "result": "positive lipid staining"}, {"measurement": "Regrowth of dermal appendages", "setting": "dorsal excisional wounds [2]; POD 90 (FIG. 4, C)", "result": "regrowth of hair follicles and other dermal appendages"}, {"measurement": "Fibroblast lineage content of wounds (ENFs vs EPFs)", "setting": "dorsal excisional wounds [2]; after 14 days", "result": "almost exclusively ENFs"}, {"measurement": "H&E histology: dermal appendage structures", "setting": "dorsal excisional wounds [2]; by 1 and 3 months", "result": "numerous structures morphologically resembling hair follicles or sweat glands"}, {"measurement": "H&E histology: fibrosis and cellularity", "setting": "dorsal excisional wounds [2]; by 2 weeks", "result": "reduced fibrosis and increased cellularity"}, {"measurement": "Hair regrowth", "setting": "dorsal excisional wounds [2]; [3]", "result": "grossly reduced"}, {"measurement": "Wound closure", "setting": "dorsal excisional wounds [2]; [3]", "result": "delayed"}, {"measurement": "Hair growth within healed wound", "setting": "dorsal excisional wounds [2]; single dose POD 0, by 30 days", "result": "substantial hair growth within the healed wound"}, {"measurement": "Gross appearance of healed wound", "setting": "dorsal excisional wounds [2]; single dose POD 0, by 90 days", "result": "grossly indistinguishable from unwounded skin"}, {"measurement": "Wound closure rate", "setting": "dorsal excisional wounds [2]; single injection 1 mg/mL into wound base at POD 0, vs PBS", "result": "did not significantly affect wound closure rate"}, {"measurement": "Number of EPFs in wounds", "setting": "dorsal excisional wounds [2]; three months of healing", "result": "dramatically reduced numbers of EPFs"}, {"measurement": "YAP+ cells", "setting": "dorsal excisional wounds [2]; three months of healing", "result": "rare YAP^+ cells"}, {"measurement": "α-SMA+ cells", "setting": "dorsal excisional wounds [2]; three months of healing", "result": "virtually no α-SMA^+ cells"}, {"measurement": "Wound closure rates, gross appearance and ECM features", "setting": "dorsal excisional wounds [2]; two doses (POD 0 and 4)", "result": "comparable to those of wounds treated with single Verteporfin dose"}]}]}
